Values after ≈ are worked out from the molar mass of the structure shown.
Assays:
[1] = physchem; format: physicochemical
Description: Excess amounts of DRF-(5S,20S)-1042 were added to aqueous solutions of HPBCD with concentrations ranging from 0-40% w/v and the suspensions were shaken at 200 rpm and 25° C. in an incubator shaker, till no further DRF-(5S,20S)-1042 went into solution. The solutions were filtered through a 0.22 μm membrane filter and subjected to analysis by HPLC by a process described above. The results are described in Table 3 and in FIG. 1.

[2] = Physicochemical characteristics of drug substance, powder composition, blend and lyophilized product
Description: Another indication of the physicochemical characteristics of the powder composition is the density properties such as bulk and tapped density. Bulk density is described as untapped or tapped. Untapped bulk density of a substance is the undisturbed packing density of that substance and tapped bulk density relates to the packing density after tapping a bed of substance until no change in the packing density is seen. Bulk density and tapped density can be determined using compendial bulk density apparatus, the method being given in United States Pharmacopeia 29, United States Pharmacopeial Convention, Inc., Rockville, Md., 2005, at pages 2638-2639. A higher bulk density indicates a dense material allowing a higher dose to be filled into a given size capsule for example. The powder compositions can have bulk densities from about 0.8 g/ml to about 0.2 g/ml, or from about 0.6 g/ml to about 0.2 g/ml.
The Hausner ratio is a measure of inter-particle friction and the potential powder arch or bridge strength and stability (Hausner, H. H. Friction conditions in a mass of metal powders. International Journal of Powder Metallurgy 1967, 3 (4), pages 7-13). It has been widely used to estimate the flow properties of powders, blends, granules and other such particles or aggregates and is expressed as the ratio of tapped bulk density to the untapped bulk density of the substance. Hausner ratio used herein is defined as ratio of tapped to untapped bulk densities. A Hausner ratio of <1.2 indicates good flow while ratio >1.5 indicate poor flow. The powder compositions can have a Hausner ratio less than 1.5 or less than 1.2.
Carr index as used herein is defined as the percent compressibility which is a percentage ratio of the difference between tapped bulk density and initial bulk density to tapped bulk density. Carr index values between 5-15% represent materials with excellent flowability, values between 18-21% represent fair-flowability and values above 40% represent very poor flowability. The powder compositions of the invention can have Carr index values less than 40% or less than 21% or less than 15%.
Table 1 describes the physicochemical characteristics of DRF-(5S,20S)-1042, which is used in the examples below.
The powder composition and formulation blend along with their placebo have been characterized for their physical parameters and the data has been tabulated in table 11.
After completion of lyophilization cycle the vials were sealed using 20 mm aluminum flip-off seals. The resulting lyophilized product was tested for various parameters as per Table 19.

[3] = in vivo; design: species or system Swiss Albino mice; details: Swiss Albino, mouse, po, 2.5 mg/kg
Description: 5(S)-CPT (2.5 mg/kg) and 5(RS)-CPT (5 mg/kg, including 2.5 mg/kg of 5(S)-CPT in the mixture) were been administered to Swiss Albino mice to evaluate oral pharmacokinetics.
(§1) Swiss Albino mice, 3-6 weeks of age and weighing between 28-34 g were used in the study. Twelve mice were used per study. The oral pharmacokinetics test was carried out in overnight fasted condition and intravenous pharmacokinetics was carried out in fed condition. The test drugs were administered as a solution by oral gavage or lateral tail vein injection. Sparse blood samples of about 250 microliters were collected from retro-orbital plexus at designated time points into microcentrifuge tubes containing 25 microliters of EDTA. Plasma was separated by centrifuging blood at 12,800 rpm for 2 min and refrigerated until analysis.
(§2) Samples were tested for the presence of the test drug as follows. An aliquot of 100µl plasma (stored at 8° C.) was precipitated with 400µl of cold methanol for the estimation of total (lactone+carboxylate). […] Concentrations of the test drug were calculated from the linearity plotted by spiking known concentrations of the test drug in blank rat plasma. The pharmacokinetics of the test drug was calculated using non-compartmental analysis.

[4] = in vivo; design: species or system male Wistar rats; details: male, Wistar, rat, po, 2.5 mg/kg
Description: 5(S)-CPT (2.5 mg/kg) and 5(RS)-CPT (5 mg/kg, including 2.5 mg/kg of 5(S)-CPT in the mixture) were been administered to male Wistar Rats to evaluate oral pharmacokinetics.
as §1, with “Male Wistar rats, 6-8” for “Swiss Albino mice, 3-6”, “205 and 218” for “28-34”, “divided into groups of four rats.” for “used in the study. Twelve mice were used per study.”
as §2, with “100 μL” for “100µl”, “400 μL” for “400µl”

CC[C@@]1(O)C(=O)OCc2c1cc1n(c2=O)[C@@H](OCCO)c2cc3ccccc3nc2-1 [DRF-(5S,20S)-1042, 5(S)-(2′-hydroxyethoxy)-20(S)-camptothecin]
increase in aqueous solubility and solubility in bio-relevant media vs uncomplexed state [1]: more than 50 fold | increase in aqueous solubility when compared with water alone [1]: over 50 fold | solubility ([1]; 25 °C, water, thermodynamic from solid, Solubility): 20 µg/mL (≈ 49 µM) | Bulk density ([2]; drug substance): 0.17 g/mL | Carr Index ([2]; drug substance): 46.5% | Hausner ratio ([2]; drug substance): 1.9 | Moisture content ([2]; drug substance): 0.2 % w/w | Tapped density ([2]; drug substance): 0.31 g/mL | Particle size D10 ([2]; lot used for the examples): D10 = 3.6 μm | Particle size D50 ([2]; lot used for the examples): D50 = 10.9 μm | Particle size D90 ([2]; lot used for the examples): D90 = 34.0 μm | AUC [3]: 1.1 µM·h | AUC [4]: 1.21 µM·h
